Type in all cases: cell-based
Assay [1] has as its system Wnt activity (Sp5-Luc reporter, SW480 colon carcinoma cells). Briefly: Screening assay for Wnt activity: Sp5-Luc reporter gene assay in SW480 cells. The following applies: Homo sapiens, overnight incubation, 10-point dose-response from 10 μM. The source says:
The screening assay for Wnt activity is described as follows. Reporter cell lines can be generated by stably transducing cancer cell lines (e.g., colon cancer) or primary cells (e.g., IEC-6 intestinal cells) with a lentiviral construct that includes a Wnt-responsive promoter driving expression of the firefly luciferase gene.
SW480 colon carcinoma cells were transduced with a lentiviral vector expressing luciferase with a human Sp5 promoter consisting of a sequence of eight TCF/LEF binding sites. SW480 cells stably expressing the Sp5-Luc reporter gene and a hygromycin resistance gene were selected by treatment with 150 μg/mL of hygromycin for 7 days. These stably transduced SW480 cells were expanded in cell culture and used for all further screening activities. Each compound was dissolved in DMSO as a 10 mM stock and used to prepare compound source plates. Serial dilution (1:3, 10-point dose-response curves starting from 10 μM) and compound transfer was performed using the ECHO 550 (Labcyte, Sunnyvale, Calif.) into 384-well white solid bottom assay plates (Greiner Bio-One) with appropriate DMSO backfill for a final DMSO concentration of 0.1%. For Sp5-Luc reporter gene assays, the cells were plated at 4,000 cells/well in 384-well plates with medium containing 1% fetal bovine serum and incubated overnight at 37° C. and 5% CO2. Following incubation, 20 μl of BrightGlo luminescence reagent (Promega) was added to each well of the 384-well assay plates. The plates were placed on an orbital shaker for 2 min and then luminescence was quantified using the Envision (Perkin Elmer) plate reader. Readings were normalized to DMSO only treated cells, and normalized activities were utilized for EC50 calculations using the dose-response log (inhibitor) vs. response -variable slope (four parameters) nonlinear regression feature available in GraphPad Prism 5.0 (or Dotmatics). For EC50 of >10 μM, the percent inhibition at 10 μM is provided.

A further assay concerns SW480 colon cancer cells. Kind of assay: Cell viability assay (CellTiter-Blue), four days. The conditions noted are these: Homo sapiens, 96 h, CellTiter-Blue cell viability. As for the experimental part: Representative compounds were screened using the following assay procedure to assess the effect on cell viability as described below.
Each compound was dissolved in DMSO as a 10 mM stock and used to prepare compound source plates. Serial dilution (1:3, 8-point dose-response curves from 10 μM to 0.0045 μM) and compound transfer was performed using the ECHO 550 (Labcyte, Sunnyvale, Calif.) into 96-well clear bottom, black-walled plates (Corning-Costar).
Approximately 2×10^3 SW480 colon cancer cells were seeded into each well and allowed to incubate in the presence or absence of compound for four days at 37° C./5% CO2. Eight replicates of DMSO-treated cells served as controls and cells treated with compound were performed in duplicate.
After incubation, 20 μL of CellTiter-Blue (Promega) was added to each well allowed to incubate for approximately 3 hours. This reagent was a buffered solution which contains resazurin, metabolically active cells were able to reduce rezarurin (blue) into resorufin (pink) which was highly fluorescent. This measured fluorescence was used as a readout for cell viability.
After incubation, the plates were read at Ex 560 nm Em 590 nm (Cytation 3, BioTek). Dose-response curves were generated and EC50 concentration values were calculated using non-linear regression curve fit in the GraphPad Prism (San Diego, Calif.) or Dotmatics' Studies Software (Bishops Stortford, UK). For EC50 of >10 μM, the percent inhibition at 10 μM is provided.

In the next assay the test system is IL-6 (THP-1 cells). Kind of assay: Inhibition of IL-6 in LPS-stimulated THP-1 monocytes (HTRF). The following applies: Homo sapiens, LPS 500 ng/mL, IL-6 by HTRF. As for the experimental part:
Human monocyte cell line (THP-1 cells; Catalog # TIB-202, ATCC, Manassas, Va.) were cultured in Roswell Park Memorial Institute (RPMI) 1640 Medium (Catalog #21870-100, Buffalo, N.Y.) with 1% L-glutamine, 1% HEPES, 1% Sodium Pyruvate, 2% Sodium Bicarbonate supplemented with 100 units/mL penicillin, 50 μg/mL streptomycin, 2-mercaptoethanol (0.05 mM) [basal medium] and 10% fetal bovine serum (Catalog #16140089, Life Technologies, Carlsbad, Calif.) at 37° C. and 5% CO2.
THP-1 cells were cultured in basal media with 1% FBS for 24 hours before the start of the assay. Each compound was dissolved in DMSO as a 10 mM stock and used to prepare compound source plates. Serial dilution (1:3, 10-point dose-response curves starting from 10 μM) and compound transfer was performed using the ECHO 550 (Labcyte, Sunnyvale, Calif.) into 384-well white low volume assay plates (Greiner Bio-One) with appropriate DMSO backfill for a final DMSO concentration of 0.1%. THP-1 cells were plated at 5000 cells/well in the 384-well plates and incubated at 37° C. for 2 h. 500 ng/mL of LPS was added after 2 hours and cells were incubated for another 22 hours at 37° C. Plates were spun in a centrifuge for 1 minute at […] and a mixture of anti-IL6 XL665, and anti-IL6 Cryptate diluted in reconstitution buffer (Cisbio Inc.) was added to each well. Following incubation for 3 hrs at room temperature, Homogeneous Time-Resolved Fluorescence (HTRF) was measured using the Envision (Perkin Elmer) at 665 nm and […]. The ratio of fluorescence at 665 nm to 620 nm was used as a readout for IL6 quantification. All samples were processed in duplicate. Readings were normalized to DMSO treated cells and normalized activities were utilized for EC50 calculations using the dose-response log (inhibitor) vs. response -variable slope (four parameters) nonlinear regression feature available in GraphPad Prism 5.0 (or Dotmatics). For EC50 of >10 μM, the percent inhibition at 10 μM is provided.

Assay [2] concerns primary human fibroblasts derived from IPF patients (LL29 cells), α-smooth muscle actin (αSMA). Kind of assay: Inhibition of the fibrotic process: TGF-β1-treated primary human fibroblasts from IPF patients, αSMA staining. The conditions noted are these: Fibroblast, 96 h, LL29 fibroblasts from IPF patients, TGF-β1 20 ng/mL, 4 days, inhibition of fibrotic process. The source says: Representative compounds were screened using primary human fibroblasts (derived from IPF patients) treated with TGF-β1 to determine their ability to inhibit the fibrotic process.
Primary human fibroblasts derived from IPF patients (LL29 cells) [^1Xiaoqiu Liu, et. al., “Fibrotic Lung Fibroblasts Show Blunted Inhibition by cAMP Due to Deficient cAMP Response Element-Binding Protein Phosphorylation”, Journal of Pharmacology and Experimental Therapeutics (2005), 315(2), 678-687; ^2Watts, K. L., et. al., “RhoA signaling modulates cyclin D1 expression in human lung fibroblasts; implications for idiopathic pulmonary fibrosis”, Respiratory Research (2006), 7(1), 88] were obtained from American Type Culture Collection (ATCC) and expanded in F12 medium supplemented with 15% Fetal Bovine Serum and Penicillin/Streptomycin.
Each compound was dissolved in DMSO as a 10 mM stock and used to prepare compound source plates. Serial dilution (1:2, 11-point dose-response curves from 10 μM to 1.87 nM) and compound transfer was performed using the ECHO 550 (Labcyte, Sunnyvale, Calif.) into 384-well clear bottom assay plates (Greiner Bio-One) with appropriate DMSO backfill for a final DMSO concentration of 0.1%. LL29 cells are plated at 1,500 cells/well in 80 μL/well F12 medium supplemented with 1% Fetal Bovine Serum. One hour after addition of the cells, TGF-β1 (Peprotech; 20 ng/mL) was added to the plates to induce fibrosis (ref. 1 and 2 above). Wells treated with TGF-β1 and containing DMSO were used as controls. Cells were incubated at 37° C. and 5% CO2 for 4 days. Following incubation for 4 days, SYTOX green nucleic acid stain (Life Technologies [Thermo Fisher Scientific]) was added to the wells at a final concentration of 1 μM and incubated at room temperature for 30 min. Cells were then fixed using 4% formaldehyde (Electron Microscopy Sciences), washed 3 times with PBS followed by blocking and permeabilization using 3% Bovine Serum Albumin (BSA; Sigma) and 0.3% Triton X-100 (Sigma) in PBS. Cells were then stained with antibody specific to α-smooth muscle actin (αSMA; Abcam) (ref. 1 and 2 above) in 3% Bovine Serum Albumin (BSA; Sigma) and 0.3% Triton X-100 (Sigma) in PBS, and incubated overnight at 4° C. Cells were then washed 3 times with PBS, followed by incubation with Alexa Flor-647 conjugated secondary antibody (Life Technologies [Thermo Fisher Scientific]) and DAPI at room temperature for 1 hour. Cells were then washed 3 times with PBS and plates were sealed for imaging. αSMA staining was imaged by excitation at 630 nm and emission at 665 nm and quantified using the Compartmental Analysis program on the CellInsight CX5 (Thermo Scientific). Dead or apoptotic cells were excluded from analysis based on positive SYTOX green staining. % of total cells positive for αSMA were counted in each well and normalized to the average of 11 wells treated with TGF-β1 on the same plate using Dotmatics' Studies Software. The normalized averages (fold change over untreated) of 3 replicate wells for each compound concentration were used to create dose-responses curves and EC50 values were calculated using non-linear regression curve fit in the Dotmatics' Studies Software. For EC50 of >10 μM, the percent inhibition at 10 μM is provided.

Structures are written as SMILES. pEC50: −log10 of the molar value.

For `CN(C)CCNc1cc(F)cc(-c2ccnc3[nH]c(-c4n[nH]c5ccc(-c6cncc(CNCC7CCCC7)c6)nc45)nc23)c1` [Compound 473, N^1-(3-(2-(5-(5-(((Cyclopentylmethyl)amino)methyl)pyridin-3-yl)-1H-pyrazolo[4,3-b]pyridin-3-yl)-3H-imidazo[4,5-b]pyridin-7-yl)-5-fluorophenyl)-N^2,N^2-dimethylethane-1,2-diamin], the negative logarithm of the EC50 (pEC50) was 5.44 in assay [1], 5.55 in the assay with SW480 colon cancer cells, 5.58 in the assay with IL-6 (THP-1 cells) and 5.81 in assay [2].
Consider `Oc1cncc(-c2ccc3[nH]nc(-c4nc5c(N6CCCCC6)ccnc5[nH]4)c3n2)c1` [Compound 613, 5-(3-(7-(Piperidin-1-yl)-3H-imidazo[4,5-b]pyridin-2-yl)-1H-pyrazolo[4,3-b]pyridin-5-yl)pyridin-3-ol], for which the pEC50 in assay [1] is 5.48; with SW480 colon cancer cells, 5.45; in the assay on IL-6 (THP-1 cells), 5.04; in assay [2], 5.61.
Taken in the same sequence, the figures for `c1ccc(CNCc2cncc(-c3ccc4[nH]nc(-c5nc6c(-c7cccnc7)ccnc6[nH]5)c4n3)c2)cc1` [Compound 108, N-Benzyl-1-(5-(3-(7-(pyridin-3-yl)-3H-imidazo[4,5-b]pyridin-2-yl)-1H-pyrazolo[4,3-b]pyridin-5-yl)pyridin-3-yl)methanamine] were 5.31, 5.48, 6.88 and 5.05.
`c1cc(-c2ccoc2)c2nc(-c3n[nH]c4ccc(-c5cncc(CNCC6CCCC6)c5)nc34)[nH]c2n1` [Compound 333, 1-Cyclopentyl-N-((5-(3-(7-(furan-3-yl)-3H-imidazo[4,5-b]pyridin-2-yl)-1H-pyrazolo[4,3-b]pyridin-5-yl)pyridin-3-yl)methyl)methanamine]: the pEC50 was 5.57 in assay [1], 5.59 with SW480 colon cancer cells, 5.58 with IL-6 (THP-1 cells) and 5.85 in assay [2].

Source of the values: US10329309B2, “3-(3H-imidazo[4,5-B]pyridin-2-yl)-1H-pyrazolo[4,3-B]pyridines and therapeutic uses thereof” (Samumed, LLC, priority 2015, dated 2019).
